Columns and labels:
[1] = system: Staphylococcus Aureus Tour; experiment: Speed of sterilising action, Staphylococcus Aureus (Table 3); type: cell-based
Protocol: (§1) The strains, inoculants, culture broths and experimental methods are as already seen for calculating the M.I.C. in vitro. The antimicrobic substances were tested at concentrations of 0.1, 0.25, 0.5 and 1 g/l, the contact times taken into consideration are 0, 1, 2.5, 5, 7.5, 10, 15, 30 and 60 minutes.
(§2) The samples which at the 7th day of incubation still had no growth of micro-organisms which could be observed macroscopically and/or microscopically were considered sterile.
(§3) The results are recorded in Table 3 in terms of sterilization time expressed in minutes.

[2] = system: Proteus Vulc. ATCC 881; experiment: M.I.C. in vitro, gram- Proteus Vulc. (Table 1); type: cell-based
Protocol: (§4) The method for evaluating the activity in vitro against bacteria, fungi and protozoa consists in introducing calculated quantities of the substance, the activity of which it is desired to test, into culture media already inoculated with a predetermined number of test germs.
(§5) After 24 or 48 hours of incubation at 30° or 37° C., according to the micro-organism being tested, it is possible to evaluate the growth of the same in the culture broth; in this manner the minimum concentration (M.I.C.) which inhibits the growth of the micro-organisms in vitro is determined.
(§6) In table 1 there are recorded the M.I.C. values in γ/ml of the products subject of the present invention, against certain gram+ and gram- bacterial strains, some of which are pathogenic towards human beings.

[3] = system: Esch. Coli. SKF 12140; experiment: M.I.C. in vitro, gram- Esch. Coli (Table 1); type: cell-based, Escherichia Coli; details: for MIC: Escherichia coli
Protocol: as §4, §5, §6

[4] = system: Pseudomonas Aeruginosa; experiment: Antibacterial activity in vivo with topical treatment (Table 5); set-up: species or system female CF1 albino mice; details: for animals alive on the 15th day / animals dead on the 15th day: 10 animals; for % survivors: topical, 15th day
Protocol: After their backs have been shaved, female CF1 albino mice weighing 18-22 g are scorched (under ether anaesthetic) for 15 seconds with a pad of brass previously immersed in boiling water (7-8% of the body surface). After 90 minutes there is applied to the scorched area 0.1 ml of a suspension of Pseudomonas Aeruginosa bacteria having 15% transmittance at 650 nm. The bacterial strain in question produces a high incidence of mortality, induced by septicemic diffusion from the point of infection. After 90 minutes, with the aid of a glass rod suitably flattened at one end, the preparation containing a known concentration of the compound under examination is applied locally. The treatment is continued for a total of six days (once per day). On the fifteenth day the percentage of survivors to the tested doses in recorded.
The carrier used for applying the compounds under examination is an aqueous 0.75% solution of carboxymethyl-cellulose. The concentrations of the compounds tested are 2, 1, 0.5 and 0.25% by weight.

[5] = system: Trichophyton Mentagrophytes Ist. Pasteur; experiment: Speed of sterilising action, Trichophyton Mentagrophytes (Table 3); type: cell-based
Protocol: as §1, §2, §3

[6] = system: Trichomonas Vaginalis ISM 66/22; experiment: Speed of sterilising action, Trichomonas Vaginalis (Table 3); type: cell-based
Protocol: as §1, §2, §3

[7] = system: Candida albicans; experiment: Activity upon vaginal candidiasis in mice (Table 7); type: in vivo, female Swiss mice (Charles River CD1); details: for no. of animals surviving: 8 animals
Protocol: The treatment groups consist each of 8 female Swiss mice (Charles River CD1) of average weight 20 g. The animals are infected with 0.025 ml of a 24 hour culture of Candida albicans, equal to 10^6 cellules.
0.025 ml of a suspension in lanoline of the compound to be tested, at the desired concentration, are applied locally twice a day for a week, the first treatment being started five hours after infection.
The control group is treated with the lanoline alone in the same way. On the eighth day vaginal washings are carried out with 0.025 ml of sterile physiological solution, and the liquid is sown in Petri dishes containing Bacto Biggy Agon Difco as a selective growing medium for the Candida.
After 48 hours of incubation of the dishes at 30° C. a count is taken of the colonies which have grown. Assessment of the activity is quantized using the indices listed here below:
The results are expressed as percentages of the average index of seriousness of the infection A.D.I. (Average Degree of Infection) in the animals treated with respect to the animals in the control group.
The substances under examination were tested at concentrations of 5 and 3% by weight.

[8] = system: Pseudom.Aer. ATCC 1014; experiment: M.I.C. in vitro, gram- Pseudom. Aer. (Table 1); type: cell-based, Pseudomonas Aeruginosa; details: for MIC: Pseudomonas aeruginosa
Protocol: as §4, §5, §6

[9] = system: Trichophyton Mentagrophytes; experiment: Topical activity upon dermatophytis from Trichophyton in cavies (Table 6); type: in vivo, Albino cavies
Protocol: Albino cavies of 250-300 g are infected, after depilation and scarification of a circular area of dorsal skin upon which there are supplied 0.1 ml of a suspension of microconidia of Trichophyton Mentagrophytes from the Pasteur Institute collection, obtained from a culture of 15 days upon Saboureaud agar. 24 Hours after infection topical treatment is started and is continued for two weeks (once per day).
The compounds to be tested are dissolved or suspended at the desired concentration, in a water-alcohol mixture (75/25 v/v) containing 0.75% by weight of carboxymethyl-cellulose (CMC). […] Each single application is carried out using 0.25 ml of the suspension or solution obtained as described above.
Fourteen days after infection the lesions are assessed. Assessment is carried out by attributing index numbers depending upon the seriousness of the lesions formed, as follows:
The substances under examination were tested at concentrations of 5 and 2.5% by weight.

[10] = system: Diplococcus Pneum. ISM; experiment: M.I.C. in vitro, gram+ Diplococcus Pneum. (Table 1); type: cell-based
Protocol: as §4, §5, §6

[11] = system: Klens. Pneum. ISM; experiment: M.I.C. in vitro, gram- Klens. Pneum. (Table 1); type: cell-based
Protocol: as §4, §5, §6

[12] = Acute oral toxicity in mice (Table 4); details: mouse, in vivo, po
Protocol: (§7) The substances were administered orally to groups of 10 female mice CF1 of average weight of about 20 grams, in aqueous solution and in such way that the total volume administered would be in each case 1 ml/100 g of weight.

[13] = system: Escherichia Coli SKF 12140; experiment: Speed of sterilising action, Escherichia Coli (Table 3); type: cell-based
Protocol: as §1, §2, §3

[14] = system: Streptococ. Henclyt. 0203; experiment: M.I.C. in vitro, gram+ Streptococ. Henclyt. (Table 1); type: cell-based
Protocol: as §4, §5, §6

[15] = system: Staph.Aureus Tour; experiment: M.I.C. in vitro, gram+ Staph. Aureus (Table 1); type: cell-based, Staphylococcus Aureus; details: for MIC: Staphylococcus aureus
Protocol: as §4, §5, §6

[16] = system: Candida Albicans SKF 2270; experiment: Speed of sterilising action, Candida Albicans (Table 3); type: cell-based
Protocol: as §1, §2, §3

[17] = system: Trich. Foetus ISM 66/23; experiment: MIC protozoa, Trichomonas foetus (Table 2); type: cell-based; details: +10% serum (head); Kupferberg Trichomonas broth with 5% of horse serum
Protocol: as §4, §5
(§8) Inoculation with Trichomonas vaginalis and Trichomonas foetus, obtained from cultures transplanted every other day to make them lively, was effected in a ratio of 3.5% of the volume of medium used.
(§9) For the fungi Sabourand broth was used as a culture medium, whilst for the protozoa Kupferberg Trichomonas broth with 5% of horse serum was used.

[18] = system: Trich. Vaginalis ISM 66/22; experiment: MIC protozoa, Trichomonas vaginalis (Table 2); type: cell-based; details: +10% serum (head); Kupferberg Trichomonas broth with 5% of horse serum
Protocol: as §4, §5, §8, §9

[19] = system: Candida Albic. SKF 2270; experiment: MIC yeasts, Candida albicans (Table 2); type: cell-based; details: Sabourand broth
Protocol: as §4, §5
(§10) Inoculation with Candida albicans or Candida pseudotropicalis was made by diluting cultures grown for 24 h at 30° C. (cellular density inoculated 10^3 /ml).
as §9

[20] = system: Trych. Mentagr. 1st.Pastuer; experiment: MIC mildews, Trichophyton mentagrophytes (Table 2); type: cell-based; details: Sabourand broth
Protocol: as §4, §5
(§11) Inoculation with Trichophyton mentagrophytes and Microsporum canis was effected in a ratio of 1% of the volume of medium used.
as §9

[21] = system: mice; experiment: Acute oral toxicity in mice (Table 4); details: oral, mice, 14 days; 20160 min
Protocol: as §7

[22] = system: Candida Pseudotrop. ATCC 2512; experiment: MIC yeasts, Candida pseudotropicalis (Table 2); type: cell-based; details: Sabourand broth
Protocol: as §4, §5, §10, §9

[23] = system: Nicrosporum Canis ATCC 11621; experiment: MIC mildews, Microsporum canis (Table 2); type: cell-based; details: Sabourand broth
Protocol: as §4, §5, §11, §9

CCCCCCCCCCCCCCCC[n+]1ccccc1 [Cetyl pyridine chloride, cetyl pyridine chloride, reference compound]
sterilization time ([1]; 0.1 g/l): 7.5 min | sterilization time ([1]; 0.25 g/l): 2.5 min | sterilization time ([1]; 0.5 g/l): 1 min | sterilization time ([1]; 1 g/l): 1 min | MIC ([2]; +10% serum): > 100 µg/mL | MIC ([2]; without serum): 20 µg/mL | MIC ([3]; +10% serum): > 100 µg/mL | MIC ([3]; without serum): 5 µg/mL | animals alive on the 15th day ([4]; 0.25% by weight): 1 | animals dead on the 15th day ([4]; 0.25% by weight): 9 | % survivors ([4]; 0.25% by weight): 10% | animals alive on the 15th day ([4]; 0.5% by weight): 3 | animals dead on the 15th day ([4]; 0.5% by weight): 7 | % survivors ([4]; 0.5% by weight): 30% | animals alive on the 15th day ([4]; 1% by weight): 2 | animals dead on the 15th day ([4]; 1% by weight): 8 | % survivors ([4]; 1% by weight): 20% | animals alive on the 15th day ([4]; 2% by weight): 4 | animals dead on the 15th day ([4]; 2% by weight): 6 | % survivors ([4]; 2% by weight): 40% | sterilization time ([5]; 0.1 g/l): 60 min | sterilization time ([5]; 0.25 g/l): 60 min | sterilization time ([5]; 0.5 g/l): 30 min | sterilization time ([5]; 1 g/l): 5 min | sterilization time ([6]; 0.1 g/l): 5 min | sterilization time ([6]; 0.25 g/l): 2.5 min | sterilization time ([6]; 0.5 g/l): 1 min | sterilization time ([6]; 1 g/l): 1 min | % of healing (100-A.D.I. %) ([7]; 3% by weight): 15.97% | A.D.I. (compared with controls) ([7]; 3% by weight): 84.03% | no. of animals surviving ([7]; 3% by weight): 6 | no. of animals surviving ([7]; 5% by weight): 2 | death of treated animals ([7]; highest dose, before the end of the experiment): 75% | mortality ([7]; lower dose): 25% | MIC ([8]; ATCC1014, +10% serum): > 200 µg/mL | MIC ([8]; ATCC1014, without serum): 200 µg/mL | A.D.I. (% of control group) ([9]; 2.5% by weight): 81.27% | healing % (100-A.D.I. %) ([9]; 2.5% by weight): 18.73% | A.D.I. (% of control group) ([9]; 5% by weight): 49.81% | healing % (100-A.D.I. %) ([9]; 5% by weight): 50.19% | evaluation of seriousness of infection (A.D.I.) ([9]; 5% by weight, average index): 1.33 | MIC ([10]; +10% serum): 10 µg/mL | MIC ([10]; without serum): 1 µg/mL | MIC ([11]; +10% serum): > 100 µg/mL | MIC ([11]; without serum): 5 µg/mL | LD50 at 336 h [12]: 275 mg/kg | sterilization time ([13]; 0.1 g/l): > 60 min | sterilization time ([13]; 0.25 g/l): > 60 min | sterilization time ([13]; 0.5 g/l): > 60 min | sterilization time ([13]; 1 g/l): > 60 min | MIC ([14]; +10% serum): 5 µg/mL | MIC ([14]; without serum): 0.5 µg/mL | MIC ([15]; +10% serum): 10 µg/mL | MIC ([15]; without serum): 0.1 µg/mL | sterilization time ([16]; 0.1 g/l): 60 min | sterilization time ([16]; 0.25 g/l): 10 min | sterilization time ([16]; 0.5 g/l): 10 min | sterilization time ([16]; 1 g/l): 10 min

CCCCCCCCCC[N+](CC)(CC)CCNC(=O)C12CC3CC(CC(C3)C1)C2 [Example 10, n-Decyl-diethyl-(1-adamantane-carbonylamido)-ethyl-ammonium chloride]
M.I.C. ([2]; +10% serum): 100 µg/mL | M.I.C. ([2]; without serum): 10 µg/mL | M.I.C. ([3]; +10% serum): 100 µg/mL | M.I.C. ([3]; without serum): 10 µg/mL | MIC [17]: 5 µg/mL | MIC [18]: 10 µg/mL | M.I.C. ([8]; +10% serum): > 100 µg/mL | M.I.C. ([8]; without serum): 50 µg/mL | MIC ([19]; +10% serum): 50 µg/mL | MIC ([19]; without serum): 0.5 µg/mL | MIC ([20]; +10% serum): 50 µg/mL | MIC ([20]; without serum): 0.5 µg/mL | M.I.C. ([10]; +10% serum): 10 µg/mL | M.I.C. ([10]; without serum): 2 µg/mL | M.I.C. ([11]; +10% serum): 100 µg/mL | M.I.C. ([11]; without serum): 10 µg/mL | LD50 [21]: 1050 mg/kg | M.I.C. ([14]; +10% serum): 5 µg/mL | M.I.C. ([14]; without serum): 0.5 µg/mL | MIC ([22]; +10% serum): 50 µg/mL | MIC ([22]; without serum): 2 µg/mL | M.I.C. ([15]; +10% serum): 10 µg/mL | M.I.C. ([15]; without serum): 0.2 µg/mL | MIC ([23]; +10% serum): 50 µg/mL | MIC ([23]; without serum): 0.5 µg/mL

Source: patent US4288609A, “Quaternary ammonium derivatives of adamantane with antimicrobic activity” (priority 1976, dated 1981)
